This note sets out measurements from US12122780B2, “Pyrimidinyl group-containing tricyclic compound serving as c-Met inhibitor” (JIANGSU AOSAIKANG PHARMACEUTICAL CO., LTD., priority 2019, dated 2024).

Structures can show the parent of a compound that is named as a salt.

For one test, the target named is c-Met enzyme (Homo sapiens (Human), UniProt P08581). In words: c-Met enzyme activity inhibition (Promega c-Met Kinase Enzyme System, ADP-Glo). The note with it: 10 μM ATP, 60 min, 30° C. Type of test: biochemical. On the procedure: To detect the inhibitory effect of the compounds on c-Met enzyme activity.
The c-Met Kinase Enzyme System was purchased from Promega. Envision multi-label analyzer (PerkinElmer).
The kinase buffer in the kit was used to dilute the enzyme, substrate, ATP and inhibitor.
The compound to be tested was diluted 5-fold to the eighth concentration with a discharge gun, i.e., from 50 μM to […], with a final DMSO concentration of 5%, and double duplicate wells experiment was set. 1 μL of each concentration gradient of the inhibitor, 2 μL of c-Met enzyme (4 ng), 2 μL of a mixture of the substrate and ATP (10 μM ATP, 0.2 μg/μL poly E4Y1) were added to the microplate, and the final concentration gradient of the compound of 10 μM was diluted to 0.13 nM. The reaction system was placed at 30° C. and the reaction was carried out for 60 minutes. When the reaction was completed, 5 μL of ADP-Glo reagent was added to each well and the reaction was carried out at 30° C. for another 40 minutes, when the reaction was completed, 10 μL of kinase detection reagent was added to each well, then the reaction was carried out at 30° C. for still another 30 minutes, chemiluminescence was read by the PerkinElmer Envision multi-label analyzer with an integration time of 0.5 seconds.
Using the equation (Sample-Min)/(Max-Min)*100% to convert the original data to the inhibition rate, the IC50 value can be obtained by curve fitting with four parameters (obtained by log(inhibitor) vs. response in GraphPad Prism—Variable slope mode).

For a further test, the system named is EBC-1 cells. The test can be described thus: EBC-1 cell proliferation experiment (CellTiter-Glo). Type of test: cell-based, human. The note with it: Homo sapiens, EBC-1, 72 h, 3 days. How it is done:
MEM medium, fetal bovine serum, penicillin/streptomycin antibiotics were purchased from Wisent. EBC-1 cell line was purchased from Nanjing COBIO Bioscience Co., LTD. Envision multi-label analyzer (PerkinElmer).
EBC-1 cells were seeded in a white 96-well plate, […] cell suspension per well, which contained 3000 EBC-1 cells. The cell plate was placed in a carbon dioxide incubator for overnight culture.
The compound to be tested was diluted 5-fold to the eighth concentration with a discharge gun, i.e., from 2 mM to […], and double duplicate wells experiment was set. 78 μL of the medium was added to the middle plate, then 2 μL per well of gradient diluted compound was transferred to the corresponding position on the middle plate, then mixed well and 20 μL per well was transferred to the cell plate. The cell plate was cultured in a carbon dioxide incubator for 3 days. Another cell plate was prepared and the signal values were read on the day of dosing as […] to be used in the data analysis. 25 μL of Promega CellTiter-Glo was added to each well of this cell plate, and incubated at room temperature for 10 minutes to stabilize the luminescence signal. Readings were taken using a PerkinElmer Envision multi-label analyzer.
25 μL of Promega CellTiter-Glo reagent was added to each well of this cell plate, and incubated at room temperature for 10 minutes to stabilize the luminescence signal. Readings were taken using a PerkinElmer Envision multi-label analyzer.
Using the equation (Sample-Min)/(Max-Min)*100% to convert the original data to the inhibition rate, the IC50 value can be obtained by curve fitting with four parameters (obtained by “log(inhibitor) vs. response in GraphPad Prism—Variable slope mode).

Test [1] deals with human lung cancer EBC-1 xenograft tumor. In words: In vivo drug efficacy, human lung cancer EBC-1 xenograft tumor in nude mice. Set-up: species or system BALB/c nude mice. Particulars: for Tumor volume: n = 6; for TGI (tumor growth inhibition rate) / TRTV/CRTV (relative tumor proliferation rate T/C): 25th day. How it is done: BALB/c nude mice, female, 6-8 weeks old, weighing about 18-20 grams, animals were raised in SPF-class animal rooms in IVC (independent air supply system, constant temperature and humidity) cages (3 per cage). All cages, bedding and water were disinfected before use. All animals had free access to standard certified commercial laboratory diets. A total of 36 mice purchased from Shanghai Lingchang Biotechnology Co., Ltd. were used for research. Each animal was inoculated with 0.1 mL (5×10^6 cells) of EBC-1 cells on the right back, when the average tumor volume reached 243 mm^3, the animals were randomly grouped and the administration was started. The test compound was orally administered daily, the dose of hydrochloride of compound 24 was 10 mg/kg, the two doses of hydrochloride of compound 25 were 10 mg/kg and 20 mg/kg, respectively, and the dose of hydrochloride of compound 29 was 10 mg/kg. The tumor diameter was measured with vernier calipers twice a week. The calculation formula of tumor volume was: V=0.5a×b^2, a and b represented the long diameter and short diameter of the tumor, respectively. The anti-tumor efficacy of the compound was evaluated by TGI (%) or the relative tumor proliferation rate T/C (%). Relative tumor proliferation rate T/C (%)=TRTV/CRTV×100% (TRTV: average RTV in the treatment group; CRTV: average RTV in the negative control group). The relative tumor volume (RTV) was calculated according to the results of tumor measurement, the calculation formula was RTV=Vt/V0, wherein V0 was the tumor volume measured at the time of the grouping administration (i.e. D0), Vt was the tumor volume at a certain measurement, and TRTV and CRTV were taken on the same day. TGI (%) reflected the tumor growth inhibition rate. TGI (%)=[(1−(average tumor volume of a certain treatment group after administration-average tumor volume of the treatment group at the beginning of administration))/(average tumor volume of the solvent control group after the administration-average tumor volume of the solvent control group at the beginning of the administration)]×100%. Statistical analysis was performed based on RTV data at the end of the experiment, and SPSS software was used for analysis.

The test system of another test is Hs746T cells. In words: Hs746T cell proliferation experiment (CellTiter-Glo). Type of test: cell-based. The note with it: Homo sapiens, 96 h, 4 days. How it is done:
DMEM medium was purchased from Gibco, and fetal bovine serum was purchased from Hyclone. Hs746T cell line was purchased from ATCC. Envision multi-label analyzer (PerkinElmer).
Hs746T cells were seeded in a 384-well plate, 50 μL of cell suspension per well, which contained 1500 Hs746T cells. The cell plate was placed in a carbon dioxide incubator for overnight culture.
The compounds to be tested were 3-fold diluted into 9 concentrations with Tecan, double-duplicate well experiment was set, and the final compound concentrations added to the 384-well cell plate were 1000 nM to 0.15 nM. The cell plate was cultured in a carbon dioxide incubator for 4 days.
After 4 days, 25 μL of Promega CellTiter-Glo reagent was added to each well of this cell plate, and incubated at room temperature for 10 minutes to stabilize the luminescence signal. Readings were taken using a PerkinElmer Envision multi-label analyzer.
The action curves of the compounds were automatically fitted using Xlfit software and the values of IC50 were calculated, High control was the values of DMSO-treated wells and Low control was the values of cell-free medium wells.

The mark [2] stands for this setting: 10 mg/kg oral daily (stopped after 15 days), day 18, mean ± standard error.
Where [3] appears, read: 10 mg/kg oral daily (stopped after 15 days), day 21, mean ± standard error.
The mark [4] stands for this setting: 10 mg/kg oral daily (stopped after 15 days), day 25, mean ± standard error.
Where [5] appears, read: 10 mg/kg oral daily (stopped after 15 days), day 27, mean ± standard error.
Setting [6] is: 10 mg/kg oral daily, day 0, mean ± standard error.
[7] abbreviates: 10 mg/kg oral daily, day 4, mean ± standard error.
Where [8] appears, read: 10 mg/kg oral daily, day 7, mean ± standard error.
Setting [9] is: 10 mg/kg oral daily, day 11, mean ± standard error.
Where [10] appears, read: 10 mg/kg oral daily, day 14, mean ± standard error.

Chain of c-Met enzyme (P08581 956-1390): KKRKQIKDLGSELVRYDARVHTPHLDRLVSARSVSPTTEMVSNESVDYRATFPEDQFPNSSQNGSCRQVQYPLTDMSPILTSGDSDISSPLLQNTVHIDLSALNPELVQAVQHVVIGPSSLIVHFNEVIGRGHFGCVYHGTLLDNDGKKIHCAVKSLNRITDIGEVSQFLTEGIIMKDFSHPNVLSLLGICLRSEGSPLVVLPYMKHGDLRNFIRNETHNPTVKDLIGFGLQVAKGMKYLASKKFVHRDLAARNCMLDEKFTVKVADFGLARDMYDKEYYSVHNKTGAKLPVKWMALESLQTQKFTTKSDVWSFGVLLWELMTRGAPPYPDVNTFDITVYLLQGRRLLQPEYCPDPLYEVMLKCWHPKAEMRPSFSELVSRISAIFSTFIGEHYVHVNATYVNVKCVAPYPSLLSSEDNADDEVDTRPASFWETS

Take `CCN1CCC(COc2cnc(-c3cccc(Cn4c(=O)c(F)cn5c6cc(C#N)ccc6nc45)c3)nc2)CC1` [Hydrochloride of compound 13]: the IC50 against c-Met enzyme came to 42 nM; in the test with EBC-1 cells, 133 nM.
With `CN1CCC(COc2cnc(-c3cccc(Cn4c5c(cc(F)c4=O)-c4cc(C#N)ccc4C5(F)F)c3)nc2)CC1` [Hydrochloride of compound 16], the IC50 against c-Met enzyme turned out to be 45 nM; in the test on EBC-1 cells, 135 nM.
On the same counts, the results for `CC(C)N1CCC(COc2cnc(-c3cccc(Cn4c5c(ccc4=O)-c4cc(C#N)ccc4C5=O)c3)nc2)CC1` [Hydrochloride of compound 19] are 13.4 nM and 14.1 nM.
For the compound `CN1CCC(COc2cnc(-c3cccc(Cn4c(=O)ccc5c4nc4ccc(C#N)cn45)c3)nc2)CC1` [Hydrochloride of compound 23], the values for the concentration for half-maximal inhibition (IC50) at c-Met enzyme and in the test on EBC-1 cells were 6.46 nM and 16.8 nM, respectively.
Take `CCN1CCC(COc2cnc(-c3cccc(Cn4c(=O)ccn5c6cc(C#N)ccc6nc45)c3)nc2)CC1` [Hydrochloride of compound 24]: the results for the IC50 at c-Met enzyme and in the test on EBC-1 cells were 2.03 nM and 4.26 nM, respectively. Moreover, the Tumor volume in test [1] (setting [2]) is on record as 123 ± 31 mm^3; in test [1] (setting [3]) it was 164 ± 45 mm^3; in test [1] (setting [4]), 257 ± 72 mm^3; in test [1] (10 mg/kg oral daily (stopped after 15 days), day 25, mean ± standard error, listed as hydrochloride of compound 24), 257 mm^3; in test [1] (setting [5]), 366 ± 92 mm^3; in test [1] (setting [6]), 244 ± 23 mm^3. The Tumor volume in test [1] (setting [7]) came out at 270 ± 22 mm^3; in test [1] (setting [8]), 224 ± 16 mm^3; in test [1] (setting [9]) it was 142 ± 24 mm^3; in test [1] (setting [10]), 120 ± 25 mm^3. In addition, in test [1] (10 mg/kg oral daily), the “TGI (tumor growth inhibition rate)” value is given as 99.3%. Also, in test [1] (10 mg/kg oral daily), the “TRTV/CRTV (relative tumor proliferation rate T/C)” value is reported as 13.7%.
On to `N#Cc1ccc2nc3n(Cc4cccc(-c5ncc(OCC6CCN(C7COC7)CC6)cn5)c4)c(=O)ccn3c2c1` [Hydrochloride of compound 26], for which the IC50 against c-Met enzyme worked out at 3.12 nM; in the test with EBC-1 cells it was 16.2 nM.
For `CN1CCC(COc2cnc(-c3cccc(Cn4c(=O)ccc5c4nn4ccc(C#N)cc54)c3)nc2)CC1` [Hydrochloride of compound 27], in that order: 17.7 nM and 38 nM.
For `CN1CC2(CC(Oc3cnc(-c4cccc(Cn5c(=O)ccn6c7cc(C#N)ccc7nc56)c4)nc3)C2)C1` [Hydrochloride of compound 28], in that order: 58 nM and 66 nM.
As for `CCN1CCC(COc2cnc(-c3ccc(F)c(Cn4c(=O)ccn5c6cc(C#N)ccc6nc45)c3)nc2)CC1` [Hydrochloride of compound 29], the values for the IC50 against c-Met enzyme and in the test on EBC-1 cells were 6.31 nM and 10.3 nM, respectively. The Tumor volume in test [1] (setting [2]) was 218 ± 50 mm^3; in test [1] (setting [3]), 243 ± 56 mm^3; in test [1] (setting [4]), 337 ± 83 mm^3; in test [1] (10 mg/kg oral daily (stopped after 15 days), day 25, mean ± standard error, listed as hydrochloride of compound 29) it was 337 mm^3; in test [1] (setting [5]) it was 412 ± 100 mm^3; in test [1] (setting [6]) it was 243 ± 17 mm^3. The Tumor volume in test [1] (setting [7]) came out at 299 ± 13 mm^3; in test [1] (setting [8]), 318 ± 21 mm^3; in test [1] (setting [9]) it was 294 ± 27 mm^3; in test [1] (setting [10]) it was 205 ± 37 mm^3. The “TGI (tumor growth inhibition rate)” value in test [1] (10 mg/kg oral daily) came out at 94.8%. For the same compound, the “TRTV/CRTV (relative tumor proliferation rate T/C)” value in test [1] (10 mg/kg oral daily) turned out to be 16.2%.
Regarding `N#Cc1ccc2nc3n(Cc4cccc(-c5ncc(OCC6CCN(CCO)CC6)cn5)c4)c(=O)ccn3c2c1` [Hydrochloride of compound 30], the values for the IC50 on c-Met enzyme, in the test with EBC-1 cells and in the test with Hs746T cells were 7.48 nM, 7.09 nM and 2 nM, respectively.
For `CN1CCC(O)(COc2cnc(-c3cccc(Cn4c(=O)ccn5c6cc(C#N)ccc6nc45)c3)nc2)CC1` [Hydrochloride of compound 34], in that order: 2.82 nM, 4.91 nM and 2.6 nM.
In the case of `COCCN1CCC(COc2cnc(-c3cccc(Cn4c(=O)ccn5c6cc(C#N)ccc6nc45)c3)nc2)CC1` [Hydrochloride of compound 35], the IC50 worked out at 11.6 nM against c-Met enzyme and 5.8 nM with EBC-1 cells.
With `COC1(COc2cnc(-c3cccc(Cn4c(=O)ccn5c6cc(C#N)ccc6nc45)c3)nc2)CCN(C)CC1` [Hydrochloride of compound 36], the IC50 at c-Met enzyme worked out at 7.38 nM; with EBC-1 cells it was 6.13 nM; in the test with Hs746T cells it was 2.7 nM.
Turning to `CC(C)N1CCC(O)(COc2cnc(-c3cccc(Cn4c(=O)ccn5c6cc(C#N)ccc6nc45)c3)nc2)CC1` [Hydrochloride of compound 37], the IC50 amounted to 4.26 nM against c-Met enzyme, 4.91 nM in the test on EBC-1 cells and 2.5 nM in the test with Hs746T cells.
Turning to `COC1(COc2cnc(-c3cccc(Cn4c(=O)ccn5c6cc(C#N)ccc6nc45)c3)nc2)CCN(C(C)C)CC1` [Hydrochloride of compound 38], the results for the IC50 on c-Met enzyme, in the test with EBC-1 cells and with Hs746T cells were 7.65 nM, 8.51 nM and 3.2 nM, respectively.
As for `COC1(COc2cnc(-c3cccc(Cn4c(=O)ccn5c6cc(C#N)ccc6nc45)c3)nc2)CCN(CCO)CC1` [Hydrochloride of compound 41], the values for the IC50 against c-Met enzyme, in the test on EBC-1 cells and in the test with Hs746T cells were 6.63 nM, 5.08 nM and 2.3 nM, respectively.
